Experimental data from publication PMC5988308, “Rhodanine derivatives as potent anti-HIV and anti-HSV microbicides” (PLoS ONE, 2018).
Values joined by “and” are separate entries in the source; they are usually repeats but may differ in a detail not shown here. Equal entries are not always repeated. Where two headings read alike, the source gives them in different places.

Assays:
[1] = Metabolic stability in human liver microsomes; assay type: in vitro ADME; details: HLM, 37°C, 1 h; percentage of compound not metabolized
Experimental: The incubation mixture (total volume of 500 μL) was constituted by the following components: HLM (0.2 mg/mL), a NADPH regenerating system (NADPH 0.2 mM, […] 1 mM, D-glucose-6-phosphate 4 mM, 4 unit/mL glucose-6-phosphate dehydrogenase and MgCl2 48 mM), 50 μM of each compound in DMSO and phosphate buffer (pH 7.4, 25 mM, up to a final volume of 500 μL). The mixture was incubated at 37°C for 1 h. The reaction was cooled down and quenched with acetonitrile (1.0 mL). After centrifugation (4000 rpm, 10 min), the supernatant was taken, dried under nitrogen flow, suspended in 100 μL of methanol and analyzed by UV/LC-MS to determine the percentage of compound that was not metabolized.

[2] = tested on: HIV-1 NL4.3 (CXCR4-tropic strain); experiment: Antiviral activity on TZM-bl cells infected with HIV-1 NL4.3 (CPRG assay); assay type: cell-based; details: TZM-bl cells
Experimental: After 48 h of incubation, the medium was removed and viral infection was quantified using a β-galactosidase (CPRG) assay (Roche). Twenty thousand TZM-bl cells/well were seeded in 96-well plates in complete DMEM supplemented with 30 μg/mL DEAE-dextran (Sigma-Aldrich). […] Vehicle (0.1% dimethyl sulfoxide [DMSO])-treated cells served as a negative control. […] After 2 days, viral infection was quantified using a CPRG assay (Roche). […] To evaluate the cell toxicity of the compounds, the metabolic XTT [2,3-bis-(2-methoxy-4-nitro-5-sulfophenyl)-2H-tetrazolium-5-carboxanilide] test (Sigma-Aldrich) was performed according to the manufacturer’s instructions.

[3] = Cytotoxicity on TZM-bl cells (XTT test); assay type: cell-based; details: human, read-out: Citotoxicity (TZM-bl cells) CC50
Experimental: The human TZM-bl indicator cell line (obtained from the NIH AIDS reagents program, cat. Nr 8129 (www.aidsreagent.org) and maintained at 37°C and 5% CO2 in Dulbecco’s modified Eagle’s medium (DMEM) medium containing 10% fetal bovine serum, 50 μg/mL penicillin, and 50 μg/mL streptomycin. The HIV-1 laboratory strains NL(AD8) (NIH AIDS reagents program, cat.nr 11346), NL4.3 (NIH AIDS reagents program, cat. Nr. 114) were titrated as previously reported. Briefly, serial 5-fold dilutions of each virus were made in quadruplicate wells in 96-well culture plates, in a total volume of 100 μL of growth medium (DMEM), for a total of 8 dilution steps. Freshly trypsinized cells (20,000 cells in 100 μL of growth medium containing 75 μg/mL DEAE-dextran) were added to each well, and the plates were incubated at 37°C in a humidified 5% CO2-95% air environment. After 48 h of incubation, the medium was removed and viral infection was quantified using a β-galactosidase (CPRG) assay (Roche). Twenty thousand TZM-bl cells/well were seeded in 96-well plates in complete DMEM supplemented with 30 μg/mL DEAE-dextran (Sigma-Aldrich). Three hundred times the 50% tissue culture infective dose (TCID50)/mL of each strain was pretreated for 1 h at 37°C with six serial dilutions ([…] to 3.2 nM) of each compound and then added to the cells, as previously described. Vehicle (0.1% dimethyl sulfoxide [DMSO])-treated cells served as a negative control. […] After 2 days, viral infection was quantified using a CPRG assay (Roche). The inhibitory curves were fitted by nonlinear regression, allowing for the calculation of the 50% inhibitory concentration (IC50) using the Prism software. To evaluate the cell toxicity of the compounds, the metabolic XTT [2,3-bis-(2-methoxy-4-nitro-5-sulfophenyl)-2H-tetrazolium-5-carboxanilide] test (Sigma-Aldrich) was performed according to the manufacturer’s instructions.

HSV-2 = HSV-2 plaque reduction assay on Vero cells; assay type: cell-based; details: for EC50 / EC90: Human alphaherpesvirus 2, Vero; for EC50: read-out: HSV-2 EC50; for EC90: read-out: HSV-2 EC90; for SI (CC50/EC50), HSV-2: Vero cells
Experimental: Clinical isolates of HSV-1 and HSV-2 were kindly provided by Prof. M. Pistello, University of Pisa, Italy. HSV-1 and HSV-2 strains were propagated and titrated by plaque assay on Vero cells. A HSV-2 strain with phenotypic resistance to acyclovir was generated by serial passage in the presence of increasing concentrations of acyclovir, as previously described.
The effect of the rhodanine derivatives on HSV infection was evaluated by plaque reduction assay. Vero cells were pre-plated 24 h in advance in 24-well plates at a density of […]. Increasing concentrations of compounds were mixed with HSV-2 (MOI 0.001 pfu/cell) or HSV-2 acyclovir resistant (MOI 0.001) or HSV-1 (MOI 0.0005) or and incubated for 1 hour at 37°C. The mixtures were subsequently added to the cells, which were then incubated at 37°C for 2 h. The virus inoculum was then removed and the cells washed and overlaid with a medium containing 1.2% methylcellulose (Sigma). After further incubation at 37°C for 24 h (HSV-2 and HSV-2 R Acy) or 48 h (HSV-1), cells were fixed and stained with 0.1% crystal violet in 20% ethanol and viral plaques counted. The effective concentration producing 50% reduction (EC50) and 90% reduction (EC90) in plaque formation was determined using Prism software by comparing drug-treated with wells treated with medium and solvent. The selectivity index (SI) was calculated by dividing the CC50 by the EC50 value.
All results are presented as the mean values from three independent experiments. The EC50 values for inhibition curves were calculated by regression analysis using the software GraphPad Prism (GraphPad Software, San Diego, California, U.S.A.) by fitting a variable slope-sigmoidal dose–response curve. Acyclovir was purchased from Sigma Aldrich (Milan, Italy).

[4] = Parallel Artificial Membrane Permeability Assay (PAMPA); assay type: in vitro ADME; details: pH 7.4, 5 h
Experimental: Donor solution (0.5 mM) was prepared by diluting 1 mM dimethylsulfoxide (DMSO) compound stock solution using phosphate buffer (pH 7.4, 0.025 M). Filters were coated with 5 μL of a 1% (w/v) dodecane solution of L-α-phosphatidylcholine. Donor solution (150 μL) was added to each well of the filter plate. To each well of the acceptor plate were added 300 μL of solution (50% DMSO in phosphate buffer). All compounds were tested in three different plates on different days. The sandwich was incubated for 5 h at room temperature under gentle shaking. After the incubation time, the plates were separated, and samples were taken from both receiver and donor sides and analyzed using UV/HPLC-MS gradient method above reported. Permeability (Papp) for PAMPA, were calculated according to the following equation, obtained from Wohnsland and Faller and Sugano [37] equation with some modification in order to obtain permeability values in cm s-1, Papp=VDVA/(VD+VA)At−ln(1−r) where VA is the volume in the acceptor well, VD is the volume in the donor well (cm^3), A is the “effective area” of the membrane (cm^2), t is the incubation time (s) and r the ratio between drug concentration in the acceptor and equilibrium concentration of the drug in the total volume (VD+VA). Drug concentration is estimated by using the peak area integration.

[5] = Human immunodeficiency virus 1, NL43, TZM-bl, pre-incubation in complete medium containing fetal bovine serum (FBS), read-out: NL4-3 EC50 a
[6] = Human immunodeficiency virus 1, NL43, TZM-bl, pre-incubation with virus without serum, read-out: NL4-3 EC50

Structure (SMILES) | Metabolic Stability [1] [%] | EC50 [2, 5] [µM] | EC50 [2, 6] [µM] | CC50 [3] [µM] | EC50 (HSV-2) [µM] | EC90 (HSV-2) [µM] | SI (CC50/EC50), HSV-2 (HSV-2) | Papp [4] | EC50 ([2]; Human immunodeficiency virus 1, TZM-bl, pre-incubation with FBS, read-out: EC50 against NL4.3 strain in presence of serum) [µM] | EC50 ([2]; pre-incubation with virus without serum, read-out: NL4-3 EC50) [µM]
O=C(O)c1ccc(-c2ccc(/C=C3\SC(=S)N(c4ccc(F)c(Cl)c4)C3=O)o2)cc1O [Compound 9e, (Z)-4-(5-((3-(3-chloro-4-fluorophenyl)-4-oxo-2-thioxothiazolidin-5-ylidene)methyl)furan-2-yl)-2-hydroxybenzoic acid] | >90 | 0.42 ± 0.007 | 0.03 ± 0.001 | > 20 | 0.0503 ± 0.0105 | 0.206 ± 0.0855 | >1988 | 0.92 1·10^-6cm/sec | – | –
Cc1ccc(CCN2C(=O)/C(=C/c3ccc(-c4ccc(C(=O)O)c(O)c4)o3)SC2=S)cc1 [Compound 9b, (Z)-2-hydroxy-4-(5-((3-(4-methylphenethyl)-4-oxo-2-thioxothiazolidin-5-ylidene)methyl)furan-2-yl)benzoic acid] | >90 | 0.457 ± 0.005 | 0.023 ± 0.004 | > 20 | 0.00489 ± 0.00159 | 0.0578 ± 0.0226 | 2209 | 2.32 1·10^-6cm/sec | – | –
O=C(O)c1ccc(-c2ccc(/C=C3\SC(=S)N(CCCc4ccccc4)C3=O)o2)cc1O [Compound 9c, (Z)-2-hydroxy-4-(5-((4-oxo-3-(3-phenylpropyl)-2-thioxothiazolidin-5-ylidene)methyl)furan-2-yl)benzoic acid] | >90 | 0.457 ± 0.011 | 0.0153 ± 0.002 | > 20 | 0.052 ± 0.0212 | 0.422 ± 0.225 | 3936 | 1.23 1·10^-6cm/sec | – | –
CCc1ccc(CCN2C(=O)/C(=C/c3ccc(-c4ccc(C(=O)O)c(O)c4)o3)SC2=S)cc1 [Compound 9d, (Z)-4-(5-((3-(4-ethylphenethyl)-4-oxo-2-thioxothiazolidin-5-ylidene)methyl)furan-2-yl)-2-hydroxybenzoic acid] | >90 | 0.228 ± 0.01 | 0.0234 ± 0.003 | 12.3 | 0.0287 ± 0.00711 | 0.14 ± 0.0612 | 600 and 604.3 | 1.50 1·10^-6cm/sec | – | –
O=C(O)c1ccc(-c2ccc(/C=C3\SC(=S)N(Cc4ccc(Cl)c(F)c4)C3=O)o2)cc1O [Compound 9f, (Z)-4-(5-((3-(4-chloro-3-fluorobenzyl)-4-oxo-2-thioxothiazolidin-5-ylidene)methyl)furan-2-yl)-2-hydroxybenzoic acid] | >90 | 0.57 ± 0.009 | 0.017 ± 0.002 | > 20 | 0.0264 ± 0.0111 | 0.153 ± 0.159 | 298 | 0.87 1·10^-6cm/sec | – | –
O=C(O)c1ccc(-c2ccc(/C=C3\SC(=S)N(CCc4ccc(F)cc4)C3=O)o2)cc1O [Compound 9a, (Z)-4-(5-((3-(4-fluorophenethyl)-4-oxo-2-thioxothiazolidin-5-ylidene)methyl)furan-2-yl)-2-hydroxybenzoic acid] | >90 | 0.204 ± 0.012 | 0.0054 | 2.2 | 0.345 ± 0.168 | 0.426 ± 0.0563 | >869 | 0.4 1·10^-6cm/sec | – | –
O=C(O)c1ccc(-c2ccc(/C=C3\SC(=S)N(Cc4ccc(Cl)cc4)C3=O)o2)cc1O [Compound 2] | >90 | 0.19 ± 0.009 | 0.004 | > 20 | 0.0119 ± 0.00573 | 0.481 ± 0.299 | 9400 and 9403 | 1.26 1·10^-6cm/sec | – | –
O=C(O)c1ccc(-c2ccc(/C=C3\SC(=S)N(Cc4ccc(F)cc4)C3=O)o2)cc1O [Compound 1] | >90 | 2.951 ± 0.015 | ~0.05 | > 20 | 0.168 ± 0.143 | 2.11 ± 0.918 | – | 1.28 1·10^-6cm/sec | 3 | 0.0495 ± 0.002
